Results published in US10538742B2, “Methods and means related to cancer stem cells” (Cambridge Enterprise Limited, priority 2004, dated 2020).

How the values were obtained:
MCF7 cells = assay: MCF7 SP cell expansion in serum-free medium with growth factors; assay type: cell-based, human; settings: growth factor 10 ng/ml, 7 days, in FCS less than 0.8%
Method: The cells were cultured in FCS (A) or serum-free medium with bFGF (B), EGF (C), or both (D) for 7 days and were analyzed by flow cytometry. The SP is outlined and shown as a % of the total cell population.
(§1) The cells were cultured in DMEM, supplemented with 10% FCS, 100 units/ml penicillin G, and 100 μg/ml streptomycin (GIBCO). In some experiments, C6 cells were cultured in serum-free DMEM containing 10 μg/ml bovine insulin, 100 μg/ml human transferrin, 100 μg/ml BSA, 60 ng/ml progesterone, 16 μg/ml putrescine, 40 ng/ml sodium selenite, 63 μg/ml N-acetylcysteine, 5 μM forskolin, 50 units/ml penicillin, and 50 μg/ml streptomycin (GIBCO), as well as one or both of 10 ng/ml bFGF and 10 ng/ml PDGF, or one or both of bFGF (10 ng/ml) and EGF (10 ng/ml).
MCF7 Cell Expansion MCF7 cells were cultured in 10% FCS (FIG. 7A) or in serum-free culture medium with bFGF (FIG. 7B), EGF (FIG. 7C), or both (FIG. 7D) for 7 days. […] Cells were stained with Hoechst dye and analyzed by flow cytometry. When cultured in FCS, less than 0.8% of the cells are SP cells. By contrast, when cultured in serum-free medium with bFGF, EGF or both, 5.1%, 3.5%, or 6.2% of the cells, respectively, are SP cells.

MCF-7 cells = assay: Treatment of MCF-7 cells with gamma secretase inhibitor, SP quantitated; assay type: cell-based, human; settings: 10 uM reserpine during SP analysis
Method: FIG. 10A-10D illustrates the results of a screen for anti-cancer stem cell activity using the MCF-7 cancer cell line. MCF-7 cells were incubated with 1 uM gamma secretase inhibitor (Calbiochem, San Diego, catalog number 565750) for 7 days (B, D). Control cells were cultured without a gamma secretase inhibitor (A, C). Following drug treatment, cells were washed, and then the SP was analyzed as described herein, in the presence (C, D) or absence (A, B) of 10 uM reserpine. The percentage of SP cells in the culture is given for each experimental condition.
MCF-7 cells were cultured in serum-containing media, as described above. Cells were harvested from the cultures, washed, and resuspended in gamma secretase inhibitor I. Gamma secretase inhibitor I was purchased from Calbiochem™ (San Diego, Calif.; Catalog number 565750). The gamma secretase inhibitor was added to the cultures at a final concentration of 1 uM. Cells were treated for 7 days, and the SP was quantitated as described.
The invention includes methods for evaluating compounds for anti-cancer stem cell activity by monitoring the SP cell population of a cancer cell line. In this experiment, MCF-7 cells were treated with a gamma secretase inhibitor, as described above. […] Therefore, gamma secretase inhibitors could affect cancer stem cells expressing the Notch protein. […]

C6 cells = assay: C6 SP cell expansion in serum-free medium with bFGF and PDGF; assay type: cell-based, rat; settings: 10 ng/ml growth factor, up to 3 weeks
Method: as §1
To identify and isolate the SP cells in the cancer cell lines, the lines were cultured as described above, in either FCS or serum-free culture medium with bFGF, PDGF, or both. […] Then, 3-5×10^4 cells were analyzed in a FACSVantage fluorescence-activated cell sorter (Becton Dickinson) by using dual-wavelength analysis (blue, 424-444 nm; red, 675 nm) after excitation with 350-nm UV light. […]
The cells were stained with Hoechst 33342 and analyzed by flow cytometry. […]
To investigate the individual roles of PDGF and bFGF in expanding C6 SP cells, C6 cells were cultured in either bFGF or PDGF for 2 weeks and then in bFGF plus PDGF for an additional 2 weeks. The cells were then stained with Hoechst 33342 and analyzed by flow cytometry. […]

C6 glioma cells = assay: SP analysis by Hoechst 33342 flow cytometry, C6 glioma cells; assay type: cell-based, rat; settings: 50 μM verapamil during Hoechst 33342 labeling
Method: (§2) To identify and isolate the SP cells in the cancer cell lines, the lines were cultured as described above, in either FCS or serum-free culture medium with bFGF, PDGF, or both. The cells were removed from the culture dish with trypsin and EDTA GIBCO BRL), washed, suspended at 10^6 cells per ml in DMEM containing 2% FCS (staining medium), and preincubated in 1.5-ml Eppendorf tube at 37° C. for 10 min. The cells were then labeled in the same medium at 37° C. for 90 min with 2.5 μg/ml Hoechst 33342 dye (Molecular Probes), either alone or in combination with 50 μM verapamil (Sigma), which is an inhibitor of some (verapamil-sensitive) ABC transporters (Goodell, M. A. (1996) J. Exp. Med. 183 1797-1806.). Finally, the cells were counterstained with 1 μg/ml propidium iodide to label dead cells. Then, 3-5×10^4 cells were analyzed in a FACSVantage fluorescence-activated cell sorter (Becton Dickinson) by using dual-wavelength analysis (blue, 424-444 nm; red, 675 nm) after excitation with 350-nm UV light. Propidium iodide-positive dead cells (15%) were excluded from the analysis. In the case of the C6 cell line, the SP cells or non-SP cells were sorted and cultured in serum-free culture medium with bFGF and PDGF.
(§3) They were then analyzed by flow cytometry. […] No SP cells were detected in the two human osteosarcoma lines (U-20S and SaOS-2).

HeLa carcinoma cells = assay: SP analysis by Hoechst 33342 flow cytometry, HeLa carcinoma cells; assay type: cell-based, human; settings: 50 μM verapamil during Hoechst 33342 labeling
Method: as §2, §3

B104 neuroblastoma cells = assay: SP analysis by Hoechst 33342 flow cytometry, B104 neuroblastoma cells; assay type: cell-based, rat; settings: 50 μM verapamil during Hoechst 33342 labeling
Method: as §2, §3

MCF7 breast cancer cells = assay: SP analysis by Hoechst 33342 flow cytometry, MCF7 breast cancer cells; assay type: cell-based, human; settings: 50 μM verapamil during Hoechst 33342 labeling
Method: as §2, §3

## EGF: recombinant cytokine added to serum-free medium at 10 ng/ml
MCF7 cells
  % of the cells that are SP cells: 3.5%

## COC(=O)[C@H]1[C@H]2C[C@@H]3c4[nH]c5cc(OC)ccc5c4CCN3C[C@H]2C[C@@H](OC(=O)c2cc(OC)c(OC)c(OC)c2)[C@@H]1OC [reserpine]
MCF-7 cells
  SP in the presence of reserpine: no SP is visible

## PDGF
C6 cells
  SP cells maintained or detected in culture: few SP cells could be detected

## bFGF: basic fibroblast growth factor, recombinant cytokine purchased from PeproTech
C6 cells
  SP cells maintained or detected in culture: few SP cells could be detected
MCF7 cells
  % of the cells that are SP cells: 5.1%

## COc1ccc(CCN(C)CCCC(C#N)(c2ccc(OC)c(OC)c2)C(C)C)cc1OC (stereo not drawn) [verapamil]
C6 glioma cells
  SP (side population) on treatment with verapamil: decreased greatly
HeLa carcinoma cells
  SP (side population) on treatment with verapamil: decreased greatly
B104 neuroblastoma cells
  SP (side population) on treatment with verapamil: decreased greatly
MCF7 breast cancer cells
  SP (side population) on treatment with verapamil: decreased greatly
